Results taken from PubChem BioAssay AID256 (DTP/NCI, 2004).
“And” between values parts separate entries of the source, which are not always exact repeats. Equal entries are not always repeated. Toxic doses and inconclusive results are not listed. Rule for the calls: active = survival T/C of 150% or more; inactive = T/C below 125% in these data.

Test system: CD2F1 mice, L1210 leukemia ip, survival T/C
Assay: NCI In Vivo Anticancer Drug Screen. Data for tumor model L1210 Leukemia (intraperitoneal) in CD2F1 (CDF1) mice
Conditions: endpoint: mean survival time, higher = longer survival
Method in brief: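 Vehicle-treated tumor-bearing mice served as controls (C) for compound-treated mice (T). Reported figure is T divided by C.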

[1] = dose: 100.0 mg/kg/injection, schedule: Q01DX001 (ip), vehicle: saline
[2] = dose: 200.0 mg/kg/injection, schedule: Q01DX001 (ip), vehicle: saline
[3] = dose: 400.0 mg/kg/injection, schedule: Q01DX001 (ip), vehicle: saline
[4] = dose: 2.5 mg/kg/injection, schedule: Q01DX009 (ip), vehicle: saline with Tween-80
[5] = dose: 5.0 mg/kg/injection, schedule: Q01DX009 (ip), vehicle: saline with Tween-80
[6] = dose: 100.0 mg/kg/injection, schedule: Q04DX003 (ip), vehicle: saline with Tween-80
[7] = dose: 200.0 mg/kg/injection, schedule: Q04DX003 (ip), vehicle: saline with Tween-80
[8] = dose: 400.0 mg/kg/injection, schedule: Q04DX003 (ip), vehicle: saline with Tween-80
[9] = dose: 100.0 mg/kg/injection, schedule: Q01DX009 (ip), vehicle: saline with Tween-80
[10] = dose: 200.0 mg/kg/injection, schedule: Q01DX009 (ip), vehicle: saline with Tween-80
[11] = dose: 400.0 mg/kg/injection, schedule: Q01DX009 (ip), vehicle: saline with Tween-80
[12] = dose: 100.0 mg/kg/injection, schedule: Q04DX002 (ip), vehicle: saline with Tween-80
[13] = dose: 200.0 mg/kg/injection, schedule: Q04DX002 (ip), vehicle: saline with Tween-80
[14] = dose: 400.0 mg/kg/injection, schedule: Q04DX002 (ip), vehicle: saline with Tween-80
[15] = dose: 100.0 mg/kg/injection, schedule: Q01DX009 (ip), vehicle: other
[16] = dose: 200.0 mg/kg/injection, schedule: Q01DX009 (ip), vehicle: other

Measured: T/C

CNc1ccc(CC(=O)O)cc1
inactive: dose: 100.0 mg/kg/injection, schedule: Q04DX003 (ip), vehicle: Klucel (hydroxypropylcellulose) (HPC) 92 % of control | dose: 200.0 mg/kg/injection, schedule: Q04DX003 (ip), vehicle: Klucel (hydroxypropylcellulose) (HPC) 93 % of control | dose: 400.0 mg/kg/injection, schedule: Q04DX003 (ip), vehicle: Klucel (hydroxypropylcellulose) (HPC) 96 % of control

c1ccc(OCCSc2ccccc2)cc1
inactive: [1] 102 % of control | [2] 104 % of control | [3] 104 % of control

O=C1C=CC(=Nc2ccccc2)O1
inactive: [4] 96 % of control | dose: 2.5 mg/kg/injection, schedule: Q04DX003 (ip), vehicle: saline with Tween-80 101 % of control | [5] 102 % of control | dose: 5.0 mg/kg/injection, schedule: Q04DX003 (ip), vehicle: saline with Tween-80 101 % of control | dose: 10.0 mg/kg/injection, schedule: Q01DX009 (ip), vehicle: saline with Tween-80 93 % of control | dose: 10.0 mg/kg/injection, schedule: Q04DX003 (ip), vehicle: saline with Tween-80 98 % of control

CN(C)CCOC(=O)COc1ccc(Cl)cc1
inactive: [1] 97 % of control | [2] 100 % of control | [3] 94 % of control

O=c1[nH]c(=S)[nH]c(-c2ccc(Cl)cc2)c1CCO
inactive: [6] 94 % of control | [7] 92 % of control | [8] 90 % of control

CSC(=S)NNC(=O)c1cccc(S(=O)(=O)F)c1
inactive: dose: 75.0 mg/kg/injection, schedule: Q01DX001 (ip), vehicle: saline 97 % of control | dose: 150.0 mg/kg/injection, schedule: Q01DX001 (ip), vehicle: saline 96 % of control | dose: 300.0 mg/kg/injection, schedule: Q01DX001 (ip), vehicle: saline 96 % of control

CN(C)c1ccc(C(=O)c2ccc(N(C)C)cc2)cc1
inactive: [9] 96 % of control | [10] 102 % of control | [11] 109 % of control

NC(=O)c1cn(C2CCCCC2)c2ncccc12
inactive: [1] 96 % of control | [2] 96 % of control | [3] 102 % of control

CC1(C)N=C(N)N=C(N)N1c1ccccc1Cl
inactive: dose: 25.0 mg/kg/injection, schedule: Q04DX002 (ip), vehicle: saline 103 % of control | dose: 50.0 mg/kg/injection, schedule: Q04DX002 (ip), vehicle: saline 100 % of control

C=C(Br)COCC
inactive: [6] 89 % of control

Cc1nc(-c2ccccc2)c(Cc2ccccc2O)c(=O)[nH]1
inactive: [1] 97 % of control | [2] 97 % of control | [3] 100 % of control

CC(=O)Nc1ccc(/C=C/[N+](=O)[O-])cc1
inactive: dose: 75.0 mg/kg/injection, schedule: Q01DX001 (ip), vehicle: other 105 % of control | dose: 150.0 mg/kg/injection, schedule: Q01DX001 (ip), vehicle: other 108 % of control | dose: 300.0 mg/kg/injection, schedule: Q01DX001 (ip), vehicle: other 114 % of control

Cc1ccc(S(=O)(=O)NN=C(c2ccccc2)c2ccccc2)cc1
inactive: dose: 25.0 mg/kg/injection, schedule: Q01DX009 (ip), vehicle: water 101 % of control | dose: 50.0 mg/kg/injection, schedule: Q01DX009 (ip), vehicle: water 101 % of control | dose: 100.0 mg/kg/injection, schedule: Q01DX009 (ip), vehicle: water 95 % of control | dose: 200.0 mg/kg/injection, schedule: Q01DX009 (ip), vehicle: water 95 % of control

CC1=CCC(=O)O1
inactive: [12] 102 % of control | [13] 98 % of control | [14] 102 % of control

CCOC(=O)Nc1cccc(C(F)(F)F)c1
inactive: [15] 97 % of control | [16] 101 % of control | dose: 400.0 mg/kg/injection, schedule: Q01DX009 (ip), vehicle: other 107 % of control

COc1cc2c(cc1OC)C1CC(=O)C(CC(C)C)CN1CC2 (stereo not given)
inactive: [6] 96 % of control | [7] 88 % of control | [8] 100 % of control

Cn1c(CS)nc2ccccc21
inactive: [12] 101 % of control | [13] 93 % of control

CCSC(=O)CC
inactive: [9] 93 % of control | [10] 98 % of control

CN1CCC(=C(C#N)C#N)CC1
inactive: dose: 25.0 mg/kg/injection, schedule: Q01DX009 (ip), vehicle: saline 103 % of control | dose: 50.0 mg/kg/injection, schedule: Q01DX009 (ip), vehicle: saline 94 % of control | dose: 100.0 mg/kg/injection, schedule: Q01DX009 (ip), vehicle: saline 96 % of control

CC12CCCC1=C1CCC3CC(OC(=O)c4ccccc4)CCC3(C)C1CC2 (stereo not given)
inactive: [6] 100 % of control | [7] 96 % of control | [8] 100 % of control

O=S(=O)(O)c1ccccc1.O=S(=O)(O)c1ccccc1.[NH-]C1CCCCC1[NH-].[Pt+2]
active: dose: 1.0 mg/kg/injection, schedule: Q01DX009 (ip), vehicle: dextrose 220 % of control | dose: 1.0 mg/kg/injection, schedule: Q04DX003 (ip), vehicle: other 170 % of control | dose: 2.0 mg/kg/injection, schedule: Q04DX003 (ip), vehicle: other 218 % of control | dose: 4.0 mg/kg/injection, schedule: Q01DX001 (ip), vehicle: dextrose 155 % of control | dose: 4.0 mg/kg/injection, schedule: Q04DX003 (ip), vehicle: dextrose 221 % of control | dose: 6.0 mg/kg/injection, schedule: Q04DX003 (ip), vehicle: dextrose 200 % of control | dose: 8.0 mg/kg/injection, schedule: Q01DX001 (ip), vehicle: dextrose 155 % of control | dose: 8.0 mg/kg/injection, schedule: Q04DX003 (ip), vehicle: dextrose 191 % of control | dose: 12.0 mg/kg/injection, schedule: Q01DX001 (ip), vehicle: dextrose 196 % of control | dose: 16.0 mg/kg/injection, schedule: Q01DX001 (ip), vehicle: dextrose 152 % of control and 303 % of control | dose: 24.0 mg/kg/injection, schedule: Q01DX001 (ip), vehicle: dextrose 262 % of control
inactive: dose: 6.0 mg/kg/injection, schedule: Q04DX003 (ip), vehicle: other 119 % of control

N#CSCc1cc(=O)c(O)co1
inactive: dose: 6.25 mg/kg/injection, schedule: Q04DX003 (ip), vehicle: saline with Tween-80 104 % of control | dose: 12.5 mg/kg/injection, schedule: Q04DX003 (ip), vehicle: saline with Tween-80 94 % of control

CC12CCC(=O)C(I)(I)C1=CCCC2=O (stereo not given)
inactive: dose: 100.0 mg/kg/injection, schedule: Q01DX001 (ip), vehicle: saline with Tween-80 91 % of control | [9] 88 % of control | [10] 88 % of control | [11] 87 % of control

CC(O)C(O)C(O)C(O)CO (stereo not given) (tested in a mixture with another compound)
inactive: dose: 75.0 mg/kg/injection, schedule: Q01DX001 (ip), vehicle: saline with Tween-80 87 % of control | dose: 150.0 mg/kg/injection, schedule: Q01DX001 (ip), vehicle: saline with Tween-80 93 % of control | dose: 300.0 mg/kg/injection, schedule: Q01DX001 (ip), vehicle: saline with Tween-80 86 % of control

CC(=O)CC(C)=NCC(C)N=C(C)CC(C)=O.c1cc[c]([Sn][c]2ccccc2)cc1 (stereo not given)
inactive: [4] 93 % of control | dose: 5.0 mg/kg/injection, schedule: Q01DX001 (ip), vehicle: saline with Tween-80 98 % of control | [5] 107 % of control | dose: 10.0 mg/kg/injection, schedule: Q01DX001 (ip), vehicle: saline with Tween-80 103 % of control

NC1=NC(c2ccc(Cl)cc2)N(c2ccc(S(N)(=O)=O)cc2)C(N)=N1 (stereo not given)
inactive: dose: 25.0 mg/kg/injection, schedule: Q01DX009 (ip), vehicle: saline with Tween-80 100 % of control | dose: 50.0 mg/kg/injection, schedule: Q01DX009 (ip), vehicle: saline with Tween-80 100 % of control | [9] 96 % of control

CC(C)=CCC/C(C)=C\CC1=C(O)c2ccccc2C(=O)C1=O
inactive: dose: 50.0 mg/kg/injection, schedule: Q01DX009 (ip), vehicle: other 96 % of control | [15] 94 % of control | [16] 95 % of control

Cc1cccc(NC(=O)COc2ccc(Cl)cc2C)c1
inactive: [12] 110 % of control | [13] 94 % of control | [14] 98 % of control

CSc1ccc(C(c2ccc(SC)cc2)C(Cl)(Cl)Cl)cc1
inactive: dose: 50.0 mg/kg/injection, schedule: Q04DX003 (ip), vehicle: saline with Tween-80 91 % of control | [6] 89 % of control
